Tests used:
[1] = test system: β-D-mannosidase (snail); test: Glycosidase inhibition (Table 2 panel); type: biochemical
How it was run: (§1)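 Absorbance at 400 nm quantified para-nitrophenol liberated from […] para-nitrophenyl glycoside substrate, at the optimal pH for each enzyme […]. Na2CO3 […] terminated the reactions.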

[2] = test system: T1, α-D-galactosidase (coffee beans); test: Glycosidase inhibition (Table 2 panel); type: biochemical
T1 construct: purchased Sigma-Aldrich; host or cells: coffee beans
How it was run: as §1

[3] = test system: β-D-glucuronidase (bovine liver); test: Glycosidase inhibition (Table 2 panel); type: biochemical
How it was run: as §1

[4] = test system: T2, trehalase (porcine kidney); test: Glycosidase inhibition (Table 2 panel); type: biochemical
T2 construct: purchased Sigma-Aldrich; host or cells: porcine kidney

[5] = test system: α-L-rhamnosidase (P. decumbens); test: Glycosidase inhibition (Table 2 panel); type: biochemical
How it was run: as §1

[6] = molecular target: T3, β-D-glucosidase (bovine liver) (Bos taurus, UniProt F1MNT6); test: Glycosidase inhibition (Table 2 panel); type: biochemical
T3 sequence (F1MNT6 1-469): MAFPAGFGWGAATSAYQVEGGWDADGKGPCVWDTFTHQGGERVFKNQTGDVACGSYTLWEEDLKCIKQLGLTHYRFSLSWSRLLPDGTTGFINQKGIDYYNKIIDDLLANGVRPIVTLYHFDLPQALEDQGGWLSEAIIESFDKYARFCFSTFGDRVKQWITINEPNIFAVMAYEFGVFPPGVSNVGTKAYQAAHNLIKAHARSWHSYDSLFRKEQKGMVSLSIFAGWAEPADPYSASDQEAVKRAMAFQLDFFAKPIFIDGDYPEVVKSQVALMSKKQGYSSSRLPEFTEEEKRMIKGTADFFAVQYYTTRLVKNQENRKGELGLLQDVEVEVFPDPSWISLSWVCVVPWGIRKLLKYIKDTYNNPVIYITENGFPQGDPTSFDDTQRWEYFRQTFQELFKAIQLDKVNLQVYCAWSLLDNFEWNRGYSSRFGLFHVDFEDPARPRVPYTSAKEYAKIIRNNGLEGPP
How it was run: as §1

[7] = test system: β-D-glucosidase (almond); test: Glycosidase inhibition (Table 2 panel); type: biochemical
How it was run: as §1

[8] = test system: T4, α-D-mannosidase (Jack bean); test: Glycosidase inhibition (Table 2 panel); type: biochemical
T4 construct: purchased Sigma-Aldrich; host or cells: Jack bean
How it was run: as §1

[9] = test system: α-D-glucosidase (rat intestinal maltase); test: Glycosidase inhibition (Table 2 panel); type: biochemical
[10] = molecular target: α-D-glucosidase (rice) (Oryza sativa subsp. japonica, UniProt Q653V7); test: Glycosidase inhibition (Table 2 panel); type: biochemical
[11] = test system: H460 (lung carcinoma); test: Cancer screening, MTT growth inhibition; type: cell-based; conditions: 72 h
How it was run: (§2)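 Growth inhibition is reported as mean ± SEM from three replicates run on separate occasions and cell passages. Cells grew in DMEM with 10% foetal bovine serum at 37 °C under 5% CO2 and were treated 24 h after seeding at 2500–4000 cells/well.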

[12] = test system: A2780 (ovarian carcinoma); test: Cancer screening, MTT growth inhibition; type: cell-based; conditions: 72 h
How it was run: as §2

[13] = test system: MIA-Pa-Ca2 (pancreatic carcinoma); test: Cancer screening, MTT growth inhibition; type: cell-based; conditions: 72 h
How it was run: as §2

[14] = test system: A431 (skin carcinoma); test: Cancer screening, MTT growth inhibition; type: cell-based; conditions: 72 h
How it was run: as §2

[15] = test system: HT29 (colorectal carcinoma); test: Cancer screening, MTT growth inhibition; type: cell-based; conditions: 72 h
How it was run: as §2

α-D-glucosidase (rice), sequence (Q653V7 34-885): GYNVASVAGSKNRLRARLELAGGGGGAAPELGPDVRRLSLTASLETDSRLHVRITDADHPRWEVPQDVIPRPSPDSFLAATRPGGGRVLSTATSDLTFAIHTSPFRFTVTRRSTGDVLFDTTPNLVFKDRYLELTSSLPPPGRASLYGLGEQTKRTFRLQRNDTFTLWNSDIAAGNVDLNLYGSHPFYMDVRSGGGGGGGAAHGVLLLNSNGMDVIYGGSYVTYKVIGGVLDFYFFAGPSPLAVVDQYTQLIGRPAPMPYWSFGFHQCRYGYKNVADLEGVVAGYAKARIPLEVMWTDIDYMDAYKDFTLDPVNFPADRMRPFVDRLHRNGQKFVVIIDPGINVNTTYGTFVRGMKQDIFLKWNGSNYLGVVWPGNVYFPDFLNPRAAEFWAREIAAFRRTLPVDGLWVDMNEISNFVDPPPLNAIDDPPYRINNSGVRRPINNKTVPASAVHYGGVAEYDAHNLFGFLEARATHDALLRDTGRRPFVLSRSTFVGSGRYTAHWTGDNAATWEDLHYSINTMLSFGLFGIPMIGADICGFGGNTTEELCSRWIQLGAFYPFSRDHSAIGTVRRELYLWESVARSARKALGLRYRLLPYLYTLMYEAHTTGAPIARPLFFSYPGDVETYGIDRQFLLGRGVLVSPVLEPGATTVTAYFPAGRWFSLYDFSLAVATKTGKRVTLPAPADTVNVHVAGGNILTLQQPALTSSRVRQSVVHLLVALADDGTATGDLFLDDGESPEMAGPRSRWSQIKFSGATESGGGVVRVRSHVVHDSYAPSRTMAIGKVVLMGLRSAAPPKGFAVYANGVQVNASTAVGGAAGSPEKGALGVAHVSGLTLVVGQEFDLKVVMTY

Substance: N-(3-Hydroxyphenyl)-1,4-dideoxy-1,4-imino-L-gulitol [meta 7]
- inhibition % β-D-Mannosidase Snail ([1]; at 100 μM): ^cNI ^d(0%)
- inhibition % β-D-Mannosidase Snail ([1]; at 1000 μM): ^aNI ^b(0%)
- inhibition % α-D-Galactosidase Coffee Beans ([2]; at 100 μM): ^cNI ^d(1.8%)
- inhibition % α-D-Galactosidase Coffee Beans ([2]; at 1000 μM): ^aNI ^b(1.7%)
- inhibition % β-D-Glucuronidase Bovine Liver ([3]; at 100 μM): ^cNI ^d(1.2%)
- inhibition % β-D-Glucuronidase Bovine Liver ([3]; at 1000 μM): ^aNI ^b(0%)
- inhibition % Trehalase Porcine Kidney ([4]; at 100 μM): ^cNI ^d(0%)
- inhibition % Trehalase Porcine Kidney ([4]; at 1000 μM): ^aNI ^b(1.9%)
- inhibition % α-L-Rhamnosidase P. decumbens ([5]; at 100 μM): ^cNI ^d(3.8%)
- inhibition % α-L-Rhamnosidase P. decumbens ([5]; at 1000 μM): ^aNI ^b(2.1%)
- inhibition % β-D-Glucosidase Bovine Liver ([6]; at 100 μM): ^cNI ^d(0%)
- inhibition % β-D-Glucosidase Bovine Liver ([6]; at 1000 μM): ^aNI ^b(13.6%)
- inhibition % β-D-Glucosidase Almond ([7]; at 100 μM): ^cNI ^d(0%)
- inhibition % β-D-Glucosidase Almond ([7]; at 1000 μM): ^aNI ^b(9.6%)
- inhibition % α-D-Mannosidase Jack Bean ([8]; at 100 μM): ^cNI ^d(0%)
- inhibition % α-D-Mannosidase Jack Bean ([8]; at 1000 μM): ^aNI ^b(0%)
- inhibition % α-D-Glucosidase Rat Intestinal Maltase ([9]; at 100 μM): ^cNI ^d(0%)
- inhibition % α-D-Glucosidase Rat Intestinal Maltase ([9]; at 1000 μM): ^aNI ^b(7.2%)
- inhibition % α-D-Glucosidase Rice ([10]; at 100 μM): ^cNI ^d(0%)
- inhibition % α-D-Glucosidase Rice ([10]; at 1000 μM): ^aNI ^b(5.0%)
- DOSE SCREEN percentage (%) cell growth inhibition H460 Lung ([11]; 25 µM of drug): 37 ± 3%
- GI50 ([11]; read-out: DOSE RESPONSE GI50 H460 Lung): 47 ± 7 µM
- DOSE SCREEN percentage (%) cell growth inhibition A2780 Ovarian ([12]; 25 µM of drug): 48 ± 7%
- GI50 ([12]; read-out: DOSE RESPONSE GI50 A2780 Ovarian): 30 ± 20 µM
- DOSE SCREEN percentage (%) cell growth inhibition MIA-Pa-Ca2 Pancreatic ([13]; 25 µM of drug): 39 ± 2%
- GI50 ([13]; read-out: DOSE RESPONSE GI50 MIA-Pa-Ca2 Pancreatic): 51 ± 1.5 µM
- DOSE SCREEN percentage (%) cell growth inhibition A431 Skin ([14]; 25 µM of drug): 56 ± 6%
- GI50 ([14]; read-out: DOSE RESPONSE GI50 A431 Skin): 17 ± 8.5 µM
- DOSE SCREEN percentage (%) cell growth inhibition HT29 Colon ([15]; 25 µM of drug): 29 ± 1%
- GI50 ([15]; read-out: DOSE RESPONSE GI50 HT29 Colon): 50 µM

— paper PMC12655172, “Borylated 5-Membered Ring Iminosugars: Synthesis and Biological Evaluation for Glycosidase Inhibition and Anticancer Properties for Application in Boron Neutron Capture Therapy (BNCT)—Part 2” (Pharmaceuticals, 2025)
